Read-outs that look alike come from different tables or passages of the source.
Legend:
mice [1] = test system: mice; parameters: method as in PMID 11234340, PMID 12484538, PMID 15652370; conditions: series 1, cited from earlier work
mice [2] = test system: mice; parameters: method as in PMID 11234340, PMID 12484538, PMID 15652370; conditions: cited from earlier work; for % Inh. of locomotor activity: series 1; for ED50, influence on the locomotor activity: imides described previously (series 1)
mice [3] = conditions: cited from earlier work
[4] = target: T1, µ receptor of the rat cerebral cortex (Rattus norvegicus, UniProt P33535); assay: Displacement of [3H-DHM] from µ receptor binding sites of rat cerebral cortex; conditions: read-out: Dihydromorphine [3H-DHM] Ki
T1 construct: from tissue; host or cells: rat cerebral cortex
T1 sequence (P33535 whole entry): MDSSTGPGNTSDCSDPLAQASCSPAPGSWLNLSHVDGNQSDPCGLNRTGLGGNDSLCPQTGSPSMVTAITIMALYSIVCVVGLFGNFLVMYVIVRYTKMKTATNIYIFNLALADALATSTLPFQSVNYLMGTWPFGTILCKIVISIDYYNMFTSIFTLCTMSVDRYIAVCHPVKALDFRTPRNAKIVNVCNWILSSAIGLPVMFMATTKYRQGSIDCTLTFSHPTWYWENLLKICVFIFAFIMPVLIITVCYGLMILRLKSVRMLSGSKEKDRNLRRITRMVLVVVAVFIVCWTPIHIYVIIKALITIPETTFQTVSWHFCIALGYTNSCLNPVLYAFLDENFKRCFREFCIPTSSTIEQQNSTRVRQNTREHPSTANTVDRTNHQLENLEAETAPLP

[5] = compounds obtained previously (series 1 and 2)

| SMILES | Thiopental Anesthesia % Prolong. (mice [1]; dose 12.5 mg/kg) [%] | Thiopental Anesthesia % Prolong. (mice [1]; dose 25 mg/kg) [%] | Thiopental Anesthesia % Prolong. (mice [1]; dose 50 mg/kg) [%] | % Inh. of locomotor activity (mice [2]; dose 12.5 mg/kg) [%] | % Inh. of locomotor activity (mice [2]; dose 25 mg/kg) [%] | % Inh. of locomotor activity (mice [2]; dose 50 mg/kg) [%] | ED50, influence on the locomotor activity (mice [2]) [mg/kg] | ED50, writhing test (mice [3]; [5]) [mg/kg] | Ki [4] [µM] | ED50, writhing test (mice [3]; imides described previously) [mg/kg] |
| --- | --- | --- | --- | --- | --- | --- | --- | --- | --- | --- |
| COc1ccccc1N1CCN(CCCN2C(=O)c3cc(C)nc(OC)c3C2=O)CC1 [Compound 1I] | 123.3 | 140.3 | 207.2 | 53.91 | 72.77 | 76.69 | 11.8 | 0.67 | 30.8 ± 47.8 | – |
| COc1nc(C)cc2c1C(=O)N(CCCN1CCN(c3cccc(Cl)c3)CC1)C2=O [Compound 1J] | – | – | – | – | – | – | – | – | > 100 | 8.8 |
| COc1nc(C)cc2c1C(=O)N(CN1CCc3ccccc3C1)C2=O [Compound 1M] | – | 146.6 | 195.1 | – | 47.25 | 59.21 | 29.5 | 12.7 | 13.8 ± 12.2 | – |
| CCOc1nc(C)cc2c1C(=O)N(CCCN1CCN(c3cccc(Cl)c3)CC1)C2=O [Compound 2J] | – | – | – | – | – | – | – | – | > 100 | 8.7 |
